Where only a bound is given, the exact number is not on record here.

The subject of assay [1] is Wnt pathway (Sp5-Luc reporter, TCF/LEF binding sites) in SW480 colon carcinoma cells. In words: Screening assay for Wnt activity: Sp5-Luc reporter gene assay.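 As to all read-outs here: firefly luciferase luminescence read in stably transduced SW480 cells carrying the Sp5 promoter reporter with eight TCF/LEF sites, compounds given in 0.1% DMSO final.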 It is filed as cell-based, human. The settings on record: Homo sapiens; for EC50: Sp5-Luc reporter, SW480 cells, 36 to 48 hours; for inhibition at 10 µM: SW480, read-out: percent inhibition at 10 μM. Background: A reporter such as luciferase makes a cellular process visible.
Description: The screening assay for Wnt activity is described as follows.
Following incubation, 15 μl of BriteLite Plus luminescence reagent (Perkin Elmer) was added to each well of the 384-well assay plates. The plates were placed on an orbital shaker for 2 min and then luminescence was quantified using the Envision (Perkin Elmer) plate reader.

Assay [2] concerns the target recombinant DYRK1A kinase (Homo sapiens (Human), UniProt Q13627). Put plainly: DYRK1A kinase assay (Ser/Thr 18 peptide Z-lyte FRET).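 Also: Read-out is the coumarin to fluorescein emission ratio, referenced to unphosphorylated (0%) and phosphorylated (100%) Ser/Thr 18 peptide controls, values from dose-response curves by non-linear regression.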 It is filed as biochemical. The settings on record: 30 μM ATP, 1 h room temperature.
Assay [3] concerns the target recombinant GSK3β kinase (Homo sapiens (Human), UniProt P49841). In words: GSK3β kinase assay (Ser/Thr 09 peptide Z-lyte FRET).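 Also: kinase activity read as coumarin to fluorescein emission ratio, 11-point threefold dilutions from 10 µM to 0.0003 µM in duplicate, unphosphorylated and phosphorylated peptide as 0% and 100% controls.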 It is filed as biochemical. The settings on record: 46 μM ATP, 1 h room temperature.
Assay [4] concerns Tau phosphorylation at Ser396 (pSer396). In words: Tau phosphorylation assay (pSer396 ELISA / western blot) in SH-SY5Y cells.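 Also: EC50 for reduction of Tau pSer396 in lysed cells, measured by colorimetric ELISA or chemiluminescent western blot, both using the same pSer396 antibody.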 It is filed as cell-based, human. The settings on record: Homo sapiens; SH-SY5Y cells, overnight (16-18 h) exposure; read-out: pSer396 Tau EC50. In general terms: In an ELISA, binding on a coated surface is turned into a signal by an enzyme label.
Assay [5] deals with SW480 colon carcinoma cells. In words: Cell viability assay (CellTiter-Glo). The class given is cell-based, human. Conditions: Homo sapiens; for EC50: 96 h, SW480 cells, CellTiter-Glo, four days incubation; for inhibition at 10 µM: SW480, read-out: percent inhibition at 10 μM.
Assay [6] deals with α-smooth muscle actin (αSMA) positive LL29 cells. Put plainly: Inhibition of fibrotic process: αSMA in TGF-β1 treated primary human fibroblasts from IPF patients.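 As to all read-outs here: controls were TGF-β1 stimulated wells with DMSO vehicle (positive) and cells given DMSO alone (negative), cultured in F12 medium with 1% fetal bovine serum.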 It is filed as cell-based. The settings on record: Homo sapiens, Fibroblast; for EC50: 96 h, Table 8, LL29 fibroblasts from IPF patients, TGF-β1 20 ng/mL, 4 days, dose-response 10 μM to 0.94 nM; for inhibition at 10 µM: read-out: percent value in parentheses beside EC50 >10 μM.

The subject of assay [7] is IL-6. Put plainly: IL-6 inhibition in LPS-stimulated human peripheral blood mononuclear cells (HTRF).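 As to all read-outs here: IL-6 detected by HTRF with an XL665- and Cryptate-labelled anti-IL-6 antibody pair, samples run in duplicate, EC50 obtained from a four-parameter Levenberg-Marquardt curve fit.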 The class given is cell-based. The settings on record: Homo sapiens, PBMC; for EC50: Table 9, huPBMCs, LPS 50 ng/mL, 22 hours, dose-response starting from 10 μM; for inhibition at 10 µM: read-out: percent value in parentheses beside EC50 >10 μM.
Description: After 22 hour incubation, a mixture of anti-IL6 XL665 and anti-IL-6 Cryptate diluted in reconstitution buffer (Catalog #62IL6PEC, Cisbio Inc., Bedford, Mass.) was added to each well. […] All samples were processed in duplicate. […] EC50 was determined using software generated by Dotmatics Limited (Windhill Bishops Stortford Herts, UK) using the Levenberg-Marquardt 4 parameter fitting procedure with finite different gradients.

Sequence of recombinant GSK3β kinase (P49841 whole entry): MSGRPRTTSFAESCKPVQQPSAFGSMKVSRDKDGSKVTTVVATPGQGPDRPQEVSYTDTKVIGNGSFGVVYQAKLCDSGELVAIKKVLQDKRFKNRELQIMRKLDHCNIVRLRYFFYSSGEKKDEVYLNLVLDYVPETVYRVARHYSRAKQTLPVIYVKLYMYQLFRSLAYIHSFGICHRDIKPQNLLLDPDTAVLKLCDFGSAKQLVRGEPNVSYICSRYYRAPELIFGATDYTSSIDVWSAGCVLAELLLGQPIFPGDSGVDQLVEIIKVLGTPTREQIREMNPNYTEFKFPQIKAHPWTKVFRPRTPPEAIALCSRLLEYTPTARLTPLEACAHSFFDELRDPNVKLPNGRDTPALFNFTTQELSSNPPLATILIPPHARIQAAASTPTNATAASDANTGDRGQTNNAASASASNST

The term EC50 denotes the concentration at which the effect is half-maximal. Turning to `Cn1cncc1-c1ccc2cnc(NC(=O)CN3CCCCC3)cc2c1` [Compound 275, N-[6-(3-methylimidazol-4-yl)-3-isoquinolyl]-2-(1-piperidyl) acetamide], the EC50 was found to be 1920 nM in assay [1]; 4.7 nM in assay [2]; 115 nM in assay [3]; 232 nM in assay [4]; 1280 nM in assay [5]; 431 nM in assay [6]. In assay [7], this molecule gave a concentration giving a half-maximal response (EC50) of 1140 nM.

For the molecule `C[C@@H](C(=O)Nc1cc2cc(-c3cnn(C)c3)ccc2cn1)N1CCCC1` [Compound 317, (S)—N-(6-(1-Methyl-1H-pyrazol-4-yl)isoquinolin-3-yl)-2-(pyrrolidin-1-yl) propanamide], the EC50 in assay [1] came to 1270 nM; in assay [2], 37 nM; in assay [3], 30 nM; in assay [4], 200 nM; in assay [5] it was 6340 nM; in assay [6], 174 nM. The molecule further yielded a concentration giving a half-maximal response (EC50) in assay [7] of 1900 nM.

For the molecule `Cn1cc(-c2ccc3cnc(NC(=O)CN4CC[C@@H](F)C4)cc3c2)cn1` [Compound 274, 2-[(3R)-3-fluoropyrrolidin-1-yl]-N-[6-(1-methylpyrazol-4-yl)-3-isoquinolyl]acetamide], the EC50 in assay [1] is 3720 nM; in assay [2], 5.9 nM; in assay [3] it was 25 nM; in assay [4], 535 nM; in assay [5] it was 4050 nM; in assay [6] it was 195 nM. The same molecule yielded an EC50 in assay [7] of 3220 nM.

As to `Cc1nnc(-c2ccc3cnc(NC(=O)CN4C[C@H]5C[C@@H]4CO5)cc3c2)s1` [Compound 960, 2-((1R,4R)-2-Oxa-5-azabicyclo[2.2.1]heptan-5-yl)-N-(6-(5-methyl-1,3,4-thiadiazol-2-yl)isoquinolin-3-yl)acetamide], the EC50 in assay [1] was determined as 1660 nM; in assay [2], 17.1 nM; in assay [3] it was 15 nM; in assay [4] it was 233 nM; in assay [5], 6670 nM; in assay [6] it was 957 nM. The EC50 in assay [7] was over 10000 nM. Also, the inhibition at 10 µM in assay [7] came out at 8.2%.

With `Cn1ncc(-c2ccc3cnc(NC(=O)C4CCC(F)(F)CC4)cc3c2)c1CN1CCC1` [Compound 298, N-(6-(5-(Azetidin-1-ylmethyl)-1-methyl-1H-pyrazol-4-yl)isoquinolin-3-yl)-4,4-difluorocyclohexane-1-carboxamide], the EC50 in assay [1] turned out to be 3230 nM; in assay [2], 13.5 nM; in assay [3] it was 125 nM; in assay [4], 1390 nM; in assay [5] it was 2380 nM; in assay [6], 1340 nM. The molecule also gave an EC50 in assay [7] of 5530 nM.

Regarding `Cn1cc(-c2ccc3cnc(NC(=O)[C@H]4CCCNC4)cc3c2)cn1` [Compound 110, (S)—N-(6-(1-Methyl-1H-pyrazol-4-yl)isoquinolin-3-yl)piperidine-3-carboxamide], the EC50 in assay [1] was determined as 1100 nM; in assay [2], 4.7 nM; in assay [3] it was 34 nM; in assay [4], 636 nM; in assay [5] it was 1050 nM; in assay [6] it was 286 nM. Besides, the EC50 in assay [7] turned out to be 484 nM.

On to `Cn1cc(-c2ccc3cnc(NC(=O)[C@H]4CCCN4)cc3c2)cn1` [Compound 320, (R)—N-(6-(1-Methyl-1H-pyrazol-4-yl)isoquinolin-3-yl)pyrrolidine-2-carboxamide], for which the EC50 was determined as 1140 nM in assay [1]; 9.9 nM in assay [2]; 10 nM in assay [3]; 280 nM in assay [4]; 1780 nM in assay [5]; 69 nM in assay [6]. This molecule also registered an EC50 in assay [7] of 1260 nM.

Regarding `CC(=O)N1CCC(C(=O)Nc2cc3cc(-c4cnn(C)c4)ccc3cn2)CC1` [Compound 329, 1-Acetyl-N-(6-(1-methyl-1H-pyrazol-4-yl)isoquinolin-3-yl)piperidine-4-carboxamide], the EC50 in assay [1] came out at 1170 nM; in assay [2] it was 2.7 nM; in assay [3], 29 nM; in assay [4], 524 nM; in assay [5], 4120 nM; in assay [6], 212 nM. Besides, it took 1160 nM to reach a half-maximal effect in assay [7] (EC50).

On to `O=C(Nc1cc2cc(-c3cncs3)ccc2cn1)C1(F)CCCCC1` [Compound 704, 1-Fluoro-N-(6-(thiazol-5-yl)isoquinolin-3-yl)cyclohexane-1-carboxamide], for which the inhibition at 10 µM in assay [1] was 10.2%; in assay [5] it was 18.1%; in assay [7], 4.8%. For the same molecule, the EC50 in assay [1] was over 10000 nM; in assay [2], 8.2 nM; in assay [3], 1830 nM; in assay [4], 10000 nM; in assay [5] it was over 10000 nM; in assay [6], 4380 nM. Moreover, the EC50 in assay [7] is over 10000 nM.

As to `Cn1cc(-c2ccc3cnc(NC(=O)[C@H]4CC[C@H](N)CC4)cc3c2)cn1` [Compound 365, trans-4-Amino-N-(6-(1-methyl-1H-pyrazol-4-yl)isoquinolin-3-yl) cyclohexane-1-carboxamide], the EC50 in assay [1] was 381 nM; in assay [2], 2.7 nM; in assay [3], 52 nM; in assay [4], 1200 nM; in assay [5], 522 nM; in assay [6], 4800 nM. This molecule showed an EC50 in assay [7] of 526 nM.

Turning to `O=C(Nc1cc2cc(-c3cnc4n3CCNC4)ccc2cn1)[C@@H]1CCCNC1` [Compound 988, (R)—N-(6-(5,6,7,8-Tetrahydroimidazo[1,2-a]pyrazin-3-yl)isoquinolin-3-yl) piperidine-3-carboxamide], the inhibition at 10 µM came to 11.1% in assay [1], 18% in assay [5], 46.5% in assay [6] and 8.8% in assay [7]. The EC50 in assay [1] is over 10000 nM; in assay [2] it was 24.9 nM; in assay [3] it was 1090 nM; in assay [4], over 10000 nM; in assay [5], over 10000 nM; in assay [6], over 10000 nM. The same molecule displayed an EC50 in assay [7] of over 10000 nM.

On to `Cn1cc(-c2ccc3cnc(NC(=O)C4CCN(C(=O)CN5CCCC5)CC4)cc3c2)cn1` [Compound 336, N-(6-(1-Methyl-1H-pyrazol-4-yl)isoquinolin-3-yl)-1-(2-(pyrrolidin-1-yl)acetyl)piperidine-4-carboxamide], for which the EC50 was 395 nM in assay [1]; 2.9 nM in assay [2]; 83 nM in assay [3]; 820 nM in assay [4]; 510 nM in assay [5]; over 10000 nM in assay [6]. The molecule further returned an EC50 in assay [7] of 569 nM. Also, the inhibition at 10 µM in assay [6] was 38.4%.

With `CN1CCC(C(=O)Nc2cc3cc(-c4cnc5n4CCNC5)ccc3cn2)CC1` [Compound 989, 1-Methyl-N-(6-(5,6,7,8-tetrahydroimidazo[1,2-a]pyrazin-3-yl)isoquinolin-3-yl)piperidine-4-carboxamide], the EC50 is 4320 nM in assay [1]; 16.2 nM in assay [2]; 298 nM in assay [3]; over 10000 nM in assay [4]; over 10000 nM in assay [5]; 4420 nM in assay [6]. In assay [7], this molecule registered an EC50 of over 10000 nM. Moreover, the figures for the inhibition at 10 µM in assay [5] and in assay [7] were 36.4% and 12.5%, respectively.

For the molecule `O=C(CN1CCCC1)Nc1cc2cc(-c3cnco3)ccc2cn1` [Compound 981, N-(6-(Oxazol-5-yl)isoquinolin-3-yl)-2-(pyrrolidin-1-yl)acetamide], the EC50 in assay [1] is 1080 nM; in assay [2], 13.7 nM; in assay [3] it was 141 nM; in assay [4] it was 1100 nM; in assay [5], 546 nM; in assay [6] it was 605 nM. Moreover, the EC50 in assay [7] is 1100 nM.

Consider `CN1CCN(C(=O)Nc2cc3cc(-c4cnn(C)c4)ccc3cn2)CC1` [Compound 316, 4-Methyl-N-(6-(1-methyl-1H-pyrazol-4-yl)isoquinolin-3-yl)piperazine-1-carboxamide], for which the EC50 in assay [1] turned out to be 2840 nM; in assay [2], 4.2 nM; in assay [3], 509 nM; in assay [4] it was 8780 nM; in assay [5] it was 2340 nM; in assay [6], 1080 nM. The EC50 in assay [7] came out at 395 nM.

For `CCN1CCC(F)(C(=O)Nc2cc3cc(-c4cn(C)nn4)ccc3cn2)CC1` [Compound 282, 1-Ethyl-4-fluoro-N-(6-(1-methyl-1H-1,2,3-triazol-4-yl)isoquinolin-3-yl) piperidine-4-carboxamide], the inhibition at 10 µM was 49.3% in assay [1] and 2.4% in assay [7]. Also, the EC50 in assay [1] was over 10000 nM; in assay [2] it was 11.5 nM; in assay [3], 134 nM; in assay [4], 973 nM; in assay [5], 6610 nM; in assay [6], 1940 nM. In addition, the EC50 in assay [7] is over 10000 nM.

For `Cn1cc(-c2ccc3cnc(NC(=O)C4CC4)c(Cl)c3c2)cn1` [Compound 364, N-(4-Chloro-6-(1-methyl-1H-pyrazol-4-yl)isoquinolin-3-yl) cyclopropanecarboxamide], the figures for the inhibition at 10 µM in assay [1], in assay [6] and in assay [7] were 24.1%, 15% and 5.8%, respectively. The EC50 in assay [1] is over 10000 nM; in assay [2] it was 840 nM; in assay [3], 3120 nM; in assay [4], over 10000 nM; in assay [5], 5600 nM; in assay [6], over 10000 nM. For the same molecule, in assay [7], the EC50 was over 10000 nM.

For the origin of these results see patent US10287267B2, “Isoquinolin-3-yl carboxamides and preparation and use thereof” (Samumed, LLC, priority 2016, dated 2019).
